Source: the CheMixHub viscosity set
“And” between values parts separate entries of the source, which are not always exact repeats. Equal values may be shown once.

Columns and labels:
[1] = xn = mol fraction of the nth substance listed

CCCCC[N+](CC)(CC)CC.O=S(=O)([N-]S(=O)(=O)C(F)(F)F)C(F)(F)F
101.3 kPa
Conditions | viscosity [mPa·s]
293.15 K | 233
298.15 K | 169
303.15 K | 126
308.15 K | 96.4
313.15 K | 75.1
318.15 K | 59.6
323.15 K | 48

CCCCn1cc[n+](C)c1.[Cl][Fe-]([Cl])([Cl])[Cl]
101 kPa
Conditions | viscosity [mPa·s]
293.15 K | 56.56
298.15 K | 46
303.15 K | 37.95
308.15 K | 31.87
313.15 K | 27.01
318.15 K | 23.24
323.15 K | 20.16

C[N+](C)(C)C.NCC(=O)[O-]
Conditions | viscosity [mPa·s]
303 K, 101 kPa | 306.2

C[C@H]1CCCC[C@H]1O
101 kPa
Conditions | viscosity [mPa·s]
298.15 K | 17.98
303.15 K | 13.53

NNc1ccccc1
101 kPa
Conditions | viscosity
303.15 K | 10.09 mPa·s
323.1 K | 4.58 mPa·s and 4.58 mPa·s

CCCC[n+]1ccccc1.O=S(=O)([N-]S(=O)(=O)C(F)(F)F)C(F)(F)F
viscosity [mPa·s]
Conditions | 293.15 K | 298.15 K | 303.15 K | 308.15 K | 313.15 K | 323.15 K
100 kPa | 68.87 | 52.94 | 41.94 | 33.75 | 27.63 | –
101 kPa | – | – | 49.4 | – | 33.8 | 24.2

N#Cc1ccccc1
Conditions | viscosity
293.15 K, 101 kPa | 1.335 mPa·s
293.15 K, 101.33 kPa | 1.382 mPa·s
298.15 K, 101 kPa | 1.237 mPa·s and 1.196 mPa·s and 1.249 mPa·s
298.15 K, 101.33 kPa | 1.282 mPa·s
303 K, 100 kPa | 1.099 mPa·s
303.15 K, 101 kPa | 1.161 mPa·s and 1.121 mPa·s and 1.124 mPa·s
303.15 K, 101.32 kPa | 1.139 mPa·s
303.15 K, 101.33 kPa | 1.148 mPa·s
308 K, 100 kPa | 1.003 mPa·s
308.15 K, 101.33 kPa | 1.063 mPa·s and 1.063 mPa·s
313 K, 100 kPa | 0.9545 mPa·s
313.15 K, 101 kPa | 0.997 mPa·s
313.15 K, 101.33 kPa | 0.993 mPa·s
318.15 K, 101 kPa | 0.931 mPa·s
323.15 K, 101 kPa | 0.872 mPa·s and 0.866 mPa·s

Nc1cccc2ccccc12
Conditions | viscosity [mPa·s]
323.15 K, 101.33 kPa | 11.2

CCCC[N+]1=C2CCCCCN2CCC1.c1c[n-]cn1
100 kPa
Conditions | viscosity [mPa·s]
293.15 K | 106.7
298.15 K | 73.92
303.15 K | 53.38
308.15 K | 40.19
313.15 K | 31.07

CC(C)[C@H](N)C(=O)[O-].CCCC[P+](CCCC)(CCCC)CCCN
Conditions | viscosity [mPa·s]
298.15 K, 101 kPa | 1015

CCCOCCO
viscosity
Conditions | 293.15 K | 298.15 K | 303.15 K | 308.15 K | 318.15 K
101 kPa | 2.575 mPa·s | 2.35 mPa·s and 2.35 mPa·s | 2.07 mPa·s and 2.124 mPa·s | – | –
101.33 kPa | – | 2.351 mPa·s | – | 1.895 mPa·s | 1.448 mPa·s

CC(C)C(C)C
Conditions | viscosity [mPa·s]
298 K, 101.33 kPa | 0.3249

CCOP(=O)([O-])OCC.CCn1cc[n+](C)c1
100 kPa
Conditions | viscosity [mPa·s]
293.15 K | 566
298.15 K | 396.6
303.15 K | 285.4
308.15 K | 208.7
313.15 K | 155.3
318.15 K | 117.2
323.15 K | 91.75

CCOCCOCCOCCO
Conditions | viscosity [mPa·s]
298.15 K, 101.33 kPa | 7.042

C1CC[C@H]2CCCC[C@@H]2C1
viscosity [mPa·s]
Conditions | 293.15 K | 303.15 K | 323.15 K
101 kPa | – | 1.616 | –
101.3 kPa | 2.118 | – | –
102 kPa | 2.14 | 1.79 | 1.3

CCCCOCCCOCCCO
101.33 kPa
Conditions | viscosity [mPa·s]
298.15 K | 4.503
308.15 K | 3.313
318.15 K | 2.531

NCCOCCOCCN.O=S(=O)([N-]S(=O)(=O)C(F)(F)F)C(F)(F)F.[Li+]
Conditions | viscosity [mPa·s]
323.15 K, 101 kPa | 108.2

N#Cc1ccccc1 + c1ccccc1
[1]
Conditions | viscosity [mPa·s]
298.15 K, 101 kPa, x1 = 0.2 | 0.688
298.15 K, 101 kPa, x2 = 0.1681 | 1.098
298.15 K, 101 kPa, x2 = 0.3126 | 0.9985
298.15 K, 101 kPa, x2 = 0.4381 | 0.9214
298.15 K, 101 kPa, x2 = 0.5481 | 0.8456
298.15 K, 101 kPa, x2 = 0.6453 | 0.7942
298.15 K, 101 kPa, x2 = 0.7318 | 0.7145
298.15 K, 101 kPa, x2 = 0.8093 | 0.6845
298.15 K, 101 kPa, x2 = 0.8792 | 0.6157
298.15 K, 101 kPa, x2 = 0.9423 | 0.5987
303.15 K, 101 kPa, x2 = 0.1133 | 1.013
303.15 K, 101 kPa, x2 = 0.1681 | 0.9758
303.15 K, 101 kPa, x2 = 0.2233 | 0.932
303.15 K, 101 kPa, x2 = 0.3126 | 0.9251
303.15 K, 101 kPa, x2 = 0.3302 | 0.866
303.15 K, 101 kPa, x2 = 0.434 | 0.812
303.15 K, 101 kPa, x2 = 0.4381 | 0.8542
303.15 K, 101 kPa, x2 = 0.5349 | 0.766
303.15 K, 101 kPa, x2 = 0.5481 | 0.8025
303.15 K, 101 kPa, x2 = 0.633 | 0.7225
303.15 K, 101 kPa, x2 = 0.6453 | 0.7256
303.15 K, 101 kPa, x2 = 0.7285 | 0.68
303.15 K, 101 kPa, x2 = 0.7318 | 0.6953
303.15 K, 101 kPa, x2 = 0.8093 | 0.6245
303.15 K, 101 kPa, x2 = 0.8214 | 0.6395
303.15 K, 101 kPa, x2 = 0.8792 | 0.5946
303.15 K, 101 kPa, x2 = 0.9119 | 0.5996
303.15 K, 101 kPa, x2 = 0.9423 | 0.5742
303.15 K, 101.32 kPa, x2 = 0.1527 | 1.001
303.15 K, 101.32 kPa, x2 = 0.3165 | 0.902
303.15 K, 101.32 kPa, x2 = 0.4174 | 0.831
303.15 K, 101.32 kPa, x2 = 0.5485 | 0.765
303.15 K, 101.32 kPa, x2 = 0.6569 | 0.715
303.15 K, 101.32 kPa, x2 = 0.7859 | 0.659
303.15 K, 101.32 kPa, x2 = 0.9145 | 0.607
308.15 K, 101 kPa, x1 = 0.2 | 0.605
308.15 K, 101 kPa, x2 = 0.1681 | 0.9852
308.15 K, 101 kPa, x2 = 0.3126 | 0.9457
308.15 K, 101 kPa, x2 = 0.4381 | 0.8352
308.15 K, 101 kPa, x2 = 0.5481 | 0.7648
308.15 K, 101 kPa, x2 = 0.6453 | 0.7054
308.15 K, 101 kPa, x2 = 0.7318 | 0.6582
308.15 K, 101 kPa, x2 = 0.8093 | 0.6214
308.15 K, 101 kPa, x2 = 0.8792 | 0.5743
308.15 K, 101 kPa, x2 = 0.9423 | 0.5621
313.15 K, 101 kPa, x2 = 0.1681 | 0.9756
313.15 K, 101 kPa, x2 = 0.3126 | 0.9143
313.15 K, 101 kPa, x2 = 0.4381 | 0.8215
313.15 K, 101 kPa, x2 = 0.5481 | 0.7236
313.15 K, 101 kPa, x2 = 0.6453 | 0.6974
313.15 K, 101 kPa, x2 = 0.7318 | 0.6318
313.15 K, 101 kPa, x2 = 0.8093 | 0.5845
313.15 K, 101 kPa, x2 = 0.8792 | 0.5413
313.15 K, 101 kPa, x2 = 0.9423 | 0.5128
318.15 K, 101 kPa, x1 = 0.2 | 0.532
323.15 K, 101 kPa, x1 = 0.2 | 0.498

C=CCNCC=C.CC(=O)O + O
[1], 101 kPa, x2 = 0.284
Conditions | viscosity [mPa·s]
298.15 K | 80
308.15 K | 45.7
318.15 K | 27.6

CCCOCCO + CCCN
viscosity [mPa·s], [1], 101.33 kPa
Conditions | 298.15 K | 308.15 K | 318.15 K
x1 = 0.0069 | 0.365 | 0.336 | 0.296
x1 = 0.0201 | 0.383 | 0.346 | 0.307
x1 = 0.054 | 0.429 | 0.385 | 0.335
x1 = 0.1049 | 0.509 | 0.446 | 0.382
x1 = 0.1955 | 0.678 | 0.574 | 0.481
x1 = 0.2496 | 0.797 | 0.668 | 0.55
x1 = 0.3215 | 0.969 | 0.8 | 0.655
x1 = 0.3686 | 1.103 | 0.895 | 0.722
x1 = 0.4528 | 1.338 | 1.075 | 0.853
x1 = 0.4581 | 1.355 | 1.088 | 0.862
x1 = 0.5595 | 1.629 | 1.289 | 1.015
x1 = 0.6789 | 1.925 | 1.51 | 1.175
x1 = 0.752 | 2.082 | 1.628 | 1.265
x1 = 0.8162 | 2.191 | 1.715 | 1.32
x1 = 0.8943 | 2.282 | 1.803 | 1.385
x1 = 0.9697 | 2.333 | 1.867 | 1.435

CCCOCCO + CN1CCCC1=O
[1], 298.15 K, 101 kPa
Conditions | viscosity [mPa·s]
x1 = 0.0057 | 1.693
x1 = 0.0142 | 1.702
x1 = 0.0273 | 1.719
x1 = 0.0609 | 1.756
x1 = 0.1004 | 1.803
x1 = 0.1386 | 1.847
x1 = 0.1786 | 1.891
x1 = 0.2186 | 1.94
x1 = 0.2578 | 1.996
x1 = 0.2966 | 2.038
x1 = 0.3343 | 2.078
x1 = 0.3852 | 2.132
x1 = 0.4436 | 2.186
x1 = 0.5011 | 2.244
x1 = 0.5422 | 2.28
x1 = 0.6093 | 2.311
x1 = 0.6638 | 2.343
x1 = 0.7673 | 2.355
x1 = 0.8387 | 2.365
x1 = 0.8702 | 2.362
x1 = 0.9445 | 2.359
x1 = 0.976 | 2.354

CCC(=O)OC + CCCCCCC
viscosity [mPa·s], [1], 101.3 kPa
Conditions | 308.15 K | 318.15 K
x1 = 0.0447 | 0.354 | 0.322
x1 = 0.1083 | 0.355 | 0.326
x1 = 0.1932 | 0.358 | 0.332
x1 = 0.3018 | 0.362 | 0.34
x1 = 0.4146 | 0.369 | 0.349
x1 = 0.5227 | 0.377 | 0.359
x1 = 0.5693 | 0.381 | 0.363
x1 = 0.7002 | 0.395 | 0.377
x1 = 0.7986 | 0.407 | 0.389
x1 = 0.9016 | 0.421 | 0.402
x1 = 0.9509 | 0.429 | 0.409
